Experimental data reported in patent US20240109900A1, “AZABICYCLIC SHP2 INHIBITORS” (IRBM S.P.A., priority 2021, published 2024).
Read-outs that look alike come from different tables or passages of the source.

Columns and labels:
[1] = target: SHP-2 enzyme (Met1-Leu525) (Homo sapiens (Human), UniProt Q06124); assay: SHP2 inhibition enzymatic assay; type: biochemical; conditions: read-out: SHP2wt-IC50
Summary of the method: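 SHP-2 (Met1-Leu525), 0.5 nM, activated with 500 nM IRS1 bis-phosphopeptide, preincubated 30 min with compounds in HEPES pH 7.2 buffer with 5 mM DTT. 75 μM DiFMUP added for 30 min at room temperature, stopped with bpV; fluorescence read. IC50 from four-parameter logistic fit of % inhibition.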

[2] = system: ERK phosphorylation in KYSE-520 cells; assay: Phospho-ERK cellular assay; type: cell-based; conditions: KYSE-520 cells, 2 h at 37° C., phospho-ERK1/2 (Thr202/Tyr204) TR-FRET, read-out: PERK IC50
Summary of the method: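 TR-FRET read-out of ERK1/2 Thr202/Tyr204 phosphorylation was taken after overnight antibody incubation at room temperature. Before that, KYSE-520 cells were treated 2 h at 37 °C with compound dilutions and lysed 30 min. Percent inhibition relative to vehicle and cell-free wells was fitted four-parametrically to give IC50.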

[3] = 0.5 nM SHP-2 activated by 500 nM IRS1 peptide, 75 μM DiFMUP substrate

Chain of SHP-2 enzyme (Met1-Leu525) (Q06124 1-525): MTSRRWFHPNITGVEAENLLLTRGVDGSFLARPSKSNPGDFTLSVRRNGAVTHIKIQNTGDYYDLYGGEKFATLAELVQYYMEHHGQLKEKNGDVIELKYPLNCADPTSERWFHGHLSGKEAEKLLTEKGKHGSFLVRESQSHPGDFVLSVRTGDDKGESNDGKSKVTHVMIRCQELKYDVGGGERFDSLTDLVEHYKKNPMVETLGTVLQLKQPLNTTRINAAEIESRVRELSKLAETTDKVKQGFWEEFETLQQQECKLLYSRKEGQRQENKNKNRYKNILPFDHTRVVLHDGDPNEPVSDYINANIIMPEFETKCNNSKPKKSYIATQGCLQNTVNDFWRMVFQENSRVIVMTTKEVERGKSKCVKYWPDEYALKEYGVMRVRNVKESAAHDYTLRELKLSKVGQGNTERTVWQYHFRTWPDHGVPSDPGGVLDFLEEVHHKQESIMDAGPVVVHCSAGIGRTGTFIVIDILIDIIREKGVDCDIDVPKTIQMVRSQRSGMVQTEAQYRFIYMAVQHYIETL

SMILES | IC50 [1, 3] [nM] | IC50 ([2]; Homo sapiens, KYSE-520, 2 h) [nM] | IC50 [1] [nM] | IC50 ([2]; Homo sapiens) [nM] | IC50 [2] [nM]
Cc1csc(C2(CN)C3CCN(c4cnc5c(-c6cccc(F)c6F)n[nH]c5n4)CC32)n1 (centres unmarked) [Example 86, (3-(3-(2,3-difluorophenyl)-1H-pyrazolo[3,4-b]pyrazin-6-yl)-7-(4-methylthiazol-2-yl)-3-azabicyclo[4.1.0]heptan-7-yl)methanamine] | < 500 | < 1000 | – | – | –
Cc1cc([C@@]2(CN)[C@@H]3CCN(c4cnc5c(-c6cnc7cc(C(F)(F)F)ccc7c6)n[nH]c5n4)C[C@@H]32)no1 [Example 152, ((1S,6R,7S)-7-(5-methylisoxazol-3-yl)-3-(3-(7-(trifluoromethyl)quinolin-3-yl)-1H-pyrazolo[3,4-b]pyrazin-6-yl)-3-azabicyclo[4.1.0]heptan-7-yl)methanamine] | < 500 | < 1000 | – | – | –
NCC1(c2ccccc2)C2CCN(c3nc4nc(Sc5cccnc5C(F)(F)F)cnc4[nH]3)CC21 (centres unmarked) [Example 63, (7-phenyl-3-(5-((2-(trifluoromethyl)pyridin-3-yl)thio)-1H-imidazo[4,5-b]pyrazin-2-yl)-3-azabicyclo[4.1.0]heptan-7-yl)methanamine] | – | – | < 500 | 1000 to 5000 | –
NC[C@]1(c2ccccc2F)[C@@H]2CCN(c3cnc4c(-c5ccc(C(N)=O)cc5F)n[nH]c4n3)C[C@@H]21 [Example 367, 4-(6-((1S,6R,7R)-7-(aminomethyl)-7-(2-fluorophenyl)-3-azabicyclo[4.1.0]heptan-3-yl)-1H-pyrazolo[3,4-b]pyrazin-3-yl)-3-fluorobenzamide] | < 500 | < 1000 | – | – | –
NC[C@]1(c2ccccc2F)[C@@H]2CCN(c3cnc4c(ccn4-c4ccnc5ccccc45)n3)C[C@@H]21 [Example 382, ((1S,6R,7R)-7-(2-fluorophenyl)-3-(5-(quinolin-4-yl)-5H-pyrrolo[2,3-b]pyrazin-2-yl)-3-azabicyclo[4.1.0]heptan-7-yl)methanamine] | < 500 | > 5000 | – | – | –
CNc1nccc(-c2n[nH]c3nc(N4CCC5C(C4)C5(CN)c4ccccc4F)cnc23)c1Cl (centres unmarked) [Example 16, 4-(6-(7-(aminomethyl)-7-(2-fluorophenyl)-3-azabicyclo[4.1.0]heptan-3-yl)-1H-pyrazolo[3,4-b]pyrazin-3-yl)-3-chloro-N-methylpyridin-2-amine] | < 500 | < 1000 | – | – | –
Cc1cc([C@@]2(CN)[C@@H]3CCN(c4cnc5c(-c6ccnc7ncccc67)n[nH]c5n4)C[C@@H]32)no1 [Example 38, ((1S,6R,7S)-3-(3-(1,8-naphthyridin-4-yl)-1H-pyrazolo[3,4-b]pyrazin-6-yl)-7-(5-methylisoxazol-3-yl)-3-azabicyclo[4.1.0]heptan-7-yl)methanamine] | < 500 | < 1000 | – | – | –
Cn1cc2c(Cl)c(-c3n[nH]c4nc(N5C[C@@H]6[C@H](C5)[C@@]6(CN)c5nc(Cl)cs5)n(C)c(=O)c34)ccc2n1 [Example 470, 6-((1R,5S,6r)-6-(aminomethyl)-6-(4-chlorothiazol-2-yl)-3-azabicyclo[3.1.0]hexan-3-yl)-3-(4-chloro-2-methyl-2H-indazol-5-yl)-5-methyl-1,5-dihydro-4H-pyrazolo[3,4-d]pyrimidin-4-one] | < 500 | < 1000 | – | – | –
NC[C@]1(c2cc(F)ccc2F)[C@@H]2CCN(c3cnc(Sc4ccnc(N)c4Cl)c(N)n3)C[C@@H]21 [Example 414, 3-((2-amino-3-chloropyridin-4-yl)thio)-6-((1S,6R,7R)-7-(aminomethyl)-7-(2,5-difluorophenyl)-3-azabicyclo[4.1.0]heptan-3-yl)pyrazin-2-amine] | < 500 | < 1000 | – | – | –
CN(C)c1nccc(-c2n[nH]c3nc(N4CC[C@@H]5[C@H](C4)[C@@]5(CN)c4ccccc4F)cnc23)c1Cl [Example 190, 4-(6-((1S,6R,7R)-7-(aminomethyl)-7-(2-fluorophenyl)-3-azabicyclo[4.1.0]heptan-3-yl)-1H-pyrazolo[3,4-b]pyrazin-3-yl)-3-chloro-N,N-dimethylpyridin-2-amine] | < 500 | < 1000 | – | – | –
NCC1(c2ncccn2)C2CCN(c3nc4nc(Sc5cccnc5C(F)(F)F)cnc4[nH]3)CC21 (centres unmarked) [Example 66, (7-(pyrimidin-2-yl)-3-(5-((2-(trifluoromethyl)pyridin-3-yl)thio)-1H-imidazo[4,5-b]pyrazin-2-yl)-3-azabicyclo[4.1.0]heptan-7-yl)methanamine] | < 500 | < 1000 | – | – | –
NC[C@]1(c2ccccc2F)[C@@H]2CCN(c3cnc4c(-c5ccc6ncccc6c5)n[nH]c4n3)C[C@@H]21 [Example 141, ((1S,6R,7R)-7-(2-fluorophenyl)-3-(3-(quinolin-6-yl)-1H-pyrazolo[3,4-b]pyrazin-6-yl)-3-azabicyclo[4.1.0]heptan-7-yl)methanamine] | < 500 | < 1000 | – | – | –
Cc1cc(C2(CN)C3CCN(c4cnc5c(-c6ccc(C)c7ncccc67)n[nH]c5n4)CC32)no1 (centres unmarked) [Example 21, (7-(5-methylisoxazol-3-yl)-3-(3-(8-methylquinolin-5-yl)-1H-pyrazolo[3,4-b]pyrazin-6-yl)-3-azabicyclo[4.1.0]heptan-7-yl)methanamine] | < 500 | < 1000 | – | – | –
CC(C)(O)c1ccc(-c2n[nH]c3nc(N4CC[C@@H]5[C@H](C4)[C@@]5(CN)c4ccccc4F)cnc23)c2cccnc12 [Example 137, 2-(5-(6-((1S,6R,7R)-7-(aminomethyl)-7-(2-fluorophenyl)-3-azabicyclo[4.1.0]heptan-3-yl)-1H-pyrazolo[3,4-b]pyrazin-3-yl)quinolin-8-yl)propan-2-ol] | < 500 | < 1000 | – | – | –
Cc1cc([C@@]2(CN)[C@@H]3CCN(c4cnc5c(-c6ccnc7ccc(Cl)cc67)n[nH]c5n4)C[C@@H]32)no1 [Example 42, ((1S,6R,7S)-3-(3-(6-chloroquinolin-4-yl)-1H-pyrazolo[3,4-b]pyrazin-6-yl)-7-(5-methylisoxazol-3-yl)-3-azabicyclo[4.1.0]heptan-7-yl)methanamine] | 500 to 3000 | 1000 to 5000 | – | – | –
NC[C@]1(c2ccccc2F)[C@@H]2CCN(c3cnc(Sc4ccnc(N)c4Cl)cn3)C[C@@H]21 [Example 401, 4-((5-((1S,6R,7R)-7-(aminomethyl)-7-(2-fluorophenyl)-3-azabicyclo[4.1.0]heptan-3-yl)pyrazin-2-yl)thio)-3-chloropyridin-2-amine] | < 500 | < 1000 | – | – | –
Cc1c(-c2n[nH]c3nc(N4CC[C@@H]5[C@H](C4)[C@@]5(CN)c4ccccc4F)cnc23)ccc2nccnc12 [Example 222, ((1S,6R,7R)-7-(2-fluorophenyl)-3-(3-(5-methylquinoxalin-6-yl)-1H-pyrazolo[3,4-b]pyrazin-6-yl)-3-azabicyclo[4.1.0]heptan-7-yl)methanamine] | < 500 | < 1000 | – | – | –
Cc1c(-c2ccc3nc(N4CC[C@@H]5[C@H](C4)[C@@]5(CN)c4ccccc4F)cnc3n2)ccc2nn(C)cc12 [Example 425, ((1S,6R,7R)-3-(6-(2,4-dimethyl-2H-indazol-5-yl)pyrido[2,3-b]pyrazin-2-yl)-7-(2-fluorophenyl)-3-azabicyclo[4.1.0]heptan-7-yl)methanamine] | < 500 | < 1000 | – | – | –
NC[C@]1(c2ccccc2F)[C@@H]2CCN(c3cnc4c(-c5ccc6c(cnn6C6CC6)c5Cl)n[nH]c4n3)C[C@@H]21 [Example 413] | < 500 | – | – | – | < 1000
